From paper PMC11460631, “Inhibition of transient receptor potential vanilloid 3 channels by antimalarial hydroxychloroquine alleviates TRPV3-dependent dermatitis” (The Journal of Biological Chemistry, 2024) come the findings set out here.

Substitutions are numbered along the chain they refer to.

Assay [1] concerns the target T1, TRPV3 N671Q mutant (Homo sapiens, UniProt Q8NET8, N671Q).
T1 construct: YFP or GFP; expressed in transfected cells; host or cells: HEK293T
T1 sequence (Q8NET8 1-790 N671Q): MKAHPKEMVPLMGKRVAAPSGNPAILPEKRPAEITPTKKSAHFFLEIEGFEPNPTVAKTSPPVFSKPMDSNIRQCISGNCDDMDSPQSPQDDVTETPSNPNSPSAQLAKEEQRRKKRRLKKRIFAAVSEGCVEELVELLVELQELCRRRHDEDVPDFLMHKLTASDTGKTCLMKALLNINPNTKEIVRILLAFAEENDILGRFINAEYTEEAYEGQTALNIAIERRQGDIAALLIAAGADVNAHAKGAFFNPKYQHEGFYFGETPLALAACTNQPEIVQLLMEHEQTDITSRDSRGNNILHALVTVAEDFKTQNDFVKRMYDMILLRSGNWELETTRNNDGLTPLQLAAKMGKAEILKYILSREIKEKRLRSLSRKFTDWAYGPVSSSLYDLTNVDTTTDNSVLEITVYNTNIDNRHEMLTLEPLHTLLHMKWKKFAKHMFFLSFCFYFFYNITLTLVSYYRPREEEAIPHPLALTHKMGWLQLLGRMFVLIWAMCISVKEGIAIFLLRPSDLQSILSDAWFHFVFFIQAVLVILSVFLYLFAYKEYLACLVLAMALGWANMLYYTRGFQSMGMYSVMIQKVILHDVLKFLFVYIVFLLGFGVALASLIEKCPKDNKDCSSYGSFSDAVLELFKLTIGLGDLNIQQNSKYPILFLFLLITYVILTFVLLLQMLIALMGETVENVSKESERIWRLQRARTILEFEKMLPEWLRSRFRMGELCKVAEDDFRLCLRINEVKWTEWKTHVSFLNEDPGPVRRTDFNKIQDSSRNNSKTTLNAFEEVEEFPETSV
As to the kind of experiment: Whole-cell recording of TRPV3 N671Q mutant. In kind it is cell-based. An excerpt:
(§1) As we mentioned above, HCQ may act as a pore blocker of TRPV3. To probe the binding configuration of HCQ to TRPV3, we carried out molecular docking using Rosetta suite (https://rosettacommons.org) ([21]) and validated the docking models with point mutations in TRPV3 (Fig. 4A). […] Furthermore, when we introduced L670A to L591A mutant, we also observed a left shift on the concentration–response curve on this double mutant as compared to L591A mutant (Fig. 4H).
(§2) Figure 4 Residues of the pore domain are critical for HCQ inhibition on TRPV3.A, left panel, docking model of HCQ to the pore domain of TRPV3 structure (6uw4). Right panels, top view and side view of the HCQ-binding pocket. B-J, representative whole-cell recording of TRPV3 and mutants in response to 1 mM 2-APB, the mixture of 1 mM 2-APB and concentration gradients of HCQ with the holding potential of ± 80 mV. K, concentration–response curves of HCQ in WT TRPV3 and mutants (n = 3–5 cells). L, quantification of the inhibitory ratio of HCQ (100 μM) on WT, L591A, and N671Q. […]
(§3) All data from whole-cell recordings were analyzed in Igor Pro (WaveMetrics). IC50 values were determined by fitting the Hill equation to concentration-response relationships. […]

Assay [2] concerns the target T2, TRPV3 Y594 alanine mutation (Homo sapiens, UniProt Q8NET8, Y594A).
T2 construct: YFP or GFP; expressed in transfected cells; host or cells: HEK293T
T2 sequence (Q8NET8 1-790 Y594A): T1 sequence (Q8NET8 1-790 N671Q) with Y594A, Q671N
As to the kind of experiment: Whole-cell recording of TRPV3 Y594 alanine mutant. The class given is cell-based. The settings on record: 1 mM 2-APB, ± 80 mV.
Source text: as §1, §2, §3

In assay [1] (100 μM HCQ), `CCN(CCO)CCCC(C)Nc1ccnc2cc(Cl)ccc12` (stereo not drawn) [HCQ, hydroxychloroquine] yielded an inhibition at 100 µM of 27.8%. The IC50 in assay [1] (1 mM 2-APB, ± 80 mV) worked out at 133 ± 8.6 µM; in assay [2] it was 1.57 ± 0.08 µM.
